In patent US8952024B2, “Herbicidal pyrimidone derivatives” (E I du Pont de Nemours and Company, priority 2009, dated 2015):
Read-outs that look alike come from different tables or passages of the source.

How the values were obtained:
Type in all cases: in vivo
[1] = test system: large crabgrass (Digitaria sanguinalis); assay: Test A pre-/postemergence plant response; conditions: Digitaria sanguinalis, pre-emergence, 240 h, Preemergence, read-out: Plant response rating, Crabgrass, Large
Method in brief: (§1)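 Formulated test chemicals (non-phytotoxic solvent, surfactant) were sprayed onto soil right after planting and simultaneously onto young plants at one to two leaves, 2 to 10 cm tall. Plants stayed in the greenhouse about ten days; injury was then visually scored against untreated controls, from 0 (no effect) to 100 (complete control).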

[2] = test system: barnyardgrass (Echinochloa crus-galli); assay: Test A pre-/postemergence plant response; conditions: Echinochloa crus-galli, 240 h; for pest or weed control at 125 g/ha: 125 g ai/ha; for pest or weed control at 500 g/ha: 500 g ai/ha
Method in brief: as §1

corn (Zea mays) = assay: Test A pre-/postemergence plant response; conditions: Zea mays, 240 h; for Corn plant response rating (crop injury, 0 = no effect, 100 = complete kill) at 500 g/ha: 500 g ai/ha
Method in brief: as §1

[3] = test system: velvetleaf (Abutilon theophrasti); assay: Test A pre-/postemergence plant response; conditions: Abutilon theophrasti, 240 h; for pest or weed control at 125 g/ha: 125 g ai/ha; for pest or weed control at 500 g/ha: 500 g ai/ha
Method in brief: as §1

[4] = test system: morningglory (Ipomoea spp.); assay: Test A pre-/postemergence plant response; conditions: Ipomoea, 240 h; for pest or weed control at 125 g/ha: 125 g ai/ha; for pest or weed control at 500 g/ha: 500 g ai/ha
Method in brief: as §1

[5] = test system: giant foxtail (Setaria faberii); assay: Test A pre-/postemergence plant response; conditions: Setaria faberi, 240 h; for pest or weed control at 125 g/ha: 125 g ai/ha; for pest or weed control at 500 g/ha: 500 g ai/ha
Method in brief: as §1

[6] = test system: winter barley (Hordeum vulgare); assay: Test B postemergence plant response; conditions: Postemergence
Method in brief: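 Plants at the 1- to 4-leaf stage (2 to 18 cm tall), grown in pots of peat moss/vermiculite medium with wetting agent and starter nutrients, received postemergence applications of test chemicals. After 13 to 15 days in a greenhouse, injury was rated visually against untreated controls on a 0 (no effect) to 100 (complete control) scale.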

COc1ccc(-n2c(-c3ccccc3)ncc(C(=O)C3=C(O)CCCC3=O)c2=O)cc1 [Compound 4, 5-[(2-hydroxy-6-oxo-cyclohexen-1-yl)carbonyl]-3-(4-methoxyphenyl)-2-phenyl-4(3H)-pyrimidinone]
pest or weed control at 125 g/ha ([1]; 125 g ai/ha, 0 to 100 scale, 0 = no effect, 100 = complete control): 20%
pest or weed control at 500 g/ha ([1]; 500 g ai/ha, visual injury, 0 to 100 scale (0 no effect, 100 complete control), approx. ten days): 90%
pest or weed control at 125 g/ha ([2]; post-emergence, Postemergence, visual injury, 0 to 100 scale (0 no effect, 100 complete control), approx. ten days, read-out: Barnyardgrass plant response rating): 90%
pest or weed control at 500 g/ha ([2]; post-emergence, Postemergence, 0 to 100 scale, 0 = no effect, 100 = complete control, approx. ten days, read-out: Plant response rating, Barnyardgrass): 100%
pest or weed control at 125 g/ha ([2]; pre-emergence, Preemergence, 0 to 100 scale, 0 = no effect, 100 = complete control, read-out: Plant response rating, Barnyardgrass): 10%
pest or weed control at 500 g/ha ([2]; pre-emergence, Preemergence, visual injury, 0 to 100 scale (0 no effect, 100 complete control), approx. ten days, read-out: Plant response rating, Barnyardgrass): 70%
plant injury at 125 g/ha (corn (Zea mays); post-emergence, Postemergence, 125 g ai/ha, visual injury, 0 to 100 scale (0 no effect, 100 complete control), approx. ten days, read-out: Corn plant response rating): 10%
Corn plant response rating (crop injury, 0 = no effect, 100 = complete kill) at 500 g/ha (corn (Zea mays); post-emergence, Postemergence, 0 to 100 scale, 0 = no effect, 100 = complete control, approx. ten days): 50%
Corn plant response rating (crop injury, 0 = no effect, 100 = complete kill) at 125 g/ha (corn (Zea mays); pre-emergence, Preemergence, 125 g ai/ha, 0 to 100 scale, 0 = no effect, 100 = complete control): 0%
Corn plant response rating (crop injury, 0 = no effect, 100 = complete kill) at 500 g/ha (corn (Zea mays); pre-emergence, Preemergence, visual injury, 0 to 100 scale (0 no effect, 100 complete control), approx. ten days): 20%
pest or weed control at 125 g/ha ([3]; post-emergence, Postemergence, visual injury, 0 to 100 scale (0 no effect, 100 complete control), approx. ten days, read-out: Velvetleaf plant response rating): 100%
pest or weed control at 500 g/ha ([3]; post-emergence, Postemergence, 0 to 100 scale, 0 = no effect, 100 = complete control, approx. ten days, read-out: Plant response rating, Velvetleaf): 100%
pest or weed control at 125 g/ha ([3]; pre-emergence, Preemergence, 0 to 100 scale, 0 = no effect, 100 = complete control, read-out: Plant response rating, Velvetleaf): 40%
pest or weed control at 500 g/ha ([3]; pre-emergence, Preemergence, visual injury, 0 to 100 scale (0 no effect, 100 complete control), approx. ten days, read-out: Plant response rating, Velvetleaf): 100%
pest or weed control at 125 g/ha ([4]; post-emergence, Postemergence, visual injury, 0 to 100 scale (0 no effect, 100 complete control), approx. ten days, read-out: Morningglory plant response rating): 100%
pest or weed control at 500 g/ha ([4]; post-emergence, Postemergence, 0 to 100 scale, 0 = no effect, 100 = complete control, approx. ten days, read-out: Plant response rating, Morningglory): 100%
pest or weed control at 125 g/ha ([4]; pre-emergence, Preemergence, 0 to 100 scale, 0 = no effect, 100 = complete control, read-out: Plant response rating, Morningglory): 0%
pest or weed control at 500 g/ha ([4]; pre-emergence, Preemergence, visual injury, 0 to 100 scale (0 no effect, 100 complete control), approx. ten days, read-out: Plant response rating, Morningglory): 70%
pest or weed control at 125 g/ha ([5]; post-emergence, Postemergence, visual injury, 0 to 100 scale (0 no effect, 100 complete control), approx. ten days, read-out: Foxtail, Giant plant response rating): 80%
pest or weed control at 500 g/ha ([5]; post-emergence, Postemergence, 0 to 100 scale, 0 = no effect, 100 = complete control, approx. ten days, read-out: Plant response rating, Foxtail, Giant): 90%
pest or weed control at 125 g/ha ([5]; pre-emergence, Preemergence, 0 to 100 scale, 0 = no effect, 100 = complete control, read-out: Plant response rating, Foxtail, Giant): 10%
pest or weed control at 500 g/ha ([5]; pre-emergence, Preemergence, visual injury, 0 to 100 scale (0 no effect, 100 complete control), approx. ten days, read-out: Plant response rating, Foxtail, Giant): 70%
plant injury at 31 g/ha ([6]; Hordeum vulgare, post-emergence, 31 g ai/ha, scale 0 to 100 (0 no effect, 100 complete control), read-out: Plant response rating, Barley): 0%
plant injury at 62 g/ha ([6]; Hordeum vulgare, post-emergence, 62 g ai/ha, scale 0 (no effect) to 100 (complete control), 13 to 15 days, read-out: Plant response rating, Barley): 0%
plant injury at 125 g/ha ([6]; Hordeum vulgare, post-emergence, 125 g ai/ha, scale 0 to 100 (0 no effect, 100 complete control), 13 to 15 days, read-out: Plant response rating, Barley): 0%
Barley plant response rating ([6]; 250 g ai/ha, scale 0 to 100): 10
